According to patent US6545049B1, “Dimer-selective RXR modulators and methods for their use” (Ligand Pharmaceuticals Incorporated, priority 1995, dated 2003):
pKd: −log10 of the molar value.

Columns and labels:
RXRα = target: T1, RXRα (Homo sapiens, UniProt P19793); experiment: RXR binding, RXRα; conditions: -v- tritiated LGD1069 and tritiated 9-cis retinoic acid
T1 sequence (P19793 1-462): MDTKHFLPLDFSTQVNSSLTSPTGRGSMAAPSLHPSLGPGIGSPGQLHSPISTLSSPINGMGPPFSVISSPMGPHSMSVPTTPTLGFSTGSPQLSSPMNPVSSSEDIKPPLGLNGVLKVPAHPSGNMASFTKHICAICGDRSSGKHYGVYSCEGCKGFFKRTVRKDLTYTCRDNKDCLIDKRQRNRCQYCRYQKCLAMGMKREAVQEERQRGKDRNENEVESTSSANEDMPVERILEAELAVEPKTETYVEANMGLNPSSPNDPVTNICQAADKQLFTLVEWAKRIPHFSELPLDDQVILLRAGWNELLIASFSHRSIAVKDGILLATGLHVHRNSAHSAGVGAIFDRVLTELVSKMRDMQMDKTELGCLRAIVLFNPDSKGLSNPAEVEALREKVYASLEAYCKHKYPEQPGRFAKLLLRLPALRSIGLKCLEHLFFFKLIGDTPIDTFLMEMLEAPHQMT
Experimental: (§1) Non-specific binding was defined as that binding remaining in the presence of 500 nM of the appropriate unlabelled compound. At the end of the incubation period, bound from free ligand were separated. The amount of bound tritiated retinoids was determined by liquid scintillation counting of an aliquot (700 μL) of the supernatant fluid or the hydroxylapatite pellet.
(§2) After correcting for non-specific binding, IC50 values were determined. […] The IC50 value was determined graphically from a log-logit plot of the data. The Kd values were determined by application of the Cheng-Prussof equation to the IC50 values, the labeled ligand concentration and the Kd of the labeled ligand.

RXRβ = target: T2, RXRβ (Mus musculus, UniProt P28704); experiment: RXR binding, RXRβ; conditions: -v- tritiated LGD1069 and tritiated 9-cis retinoic acid
T2 sequence (P28704 1-520): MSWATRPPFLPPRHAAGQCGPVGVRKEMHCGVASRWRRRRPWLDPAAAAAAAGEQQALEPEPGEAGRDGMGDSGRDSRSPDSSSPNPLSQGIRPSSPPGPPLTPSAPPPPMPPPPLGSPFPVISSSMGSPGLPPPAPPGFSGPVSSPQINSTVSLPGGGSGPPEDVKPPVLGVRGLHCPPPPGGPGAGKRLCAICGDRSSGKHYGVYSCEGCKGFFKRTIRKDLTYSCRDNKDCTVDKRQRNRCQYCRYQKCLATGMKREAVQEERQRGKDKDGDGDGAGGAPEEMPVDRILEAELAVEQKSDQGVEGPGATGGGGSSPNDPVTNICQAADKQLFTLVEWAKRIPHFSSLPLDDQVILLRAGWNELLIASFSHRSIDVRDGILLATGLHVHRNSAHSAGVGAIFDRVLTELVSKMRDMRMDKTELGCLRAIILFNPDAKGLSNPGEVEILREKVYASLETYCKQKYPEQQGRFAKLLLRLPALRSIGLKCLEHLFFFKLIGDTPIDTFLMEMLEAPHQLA
Experimental: as §1, §2

RXRγ = target: T3, RXRγ (Mus musculus, UniProt P28705); experiment: RXR binding, RXRγ; conditions: -v- tritiated LGD1069 and tritiated 9-cis retinoic acid
T3 sequence (P28705 1-463): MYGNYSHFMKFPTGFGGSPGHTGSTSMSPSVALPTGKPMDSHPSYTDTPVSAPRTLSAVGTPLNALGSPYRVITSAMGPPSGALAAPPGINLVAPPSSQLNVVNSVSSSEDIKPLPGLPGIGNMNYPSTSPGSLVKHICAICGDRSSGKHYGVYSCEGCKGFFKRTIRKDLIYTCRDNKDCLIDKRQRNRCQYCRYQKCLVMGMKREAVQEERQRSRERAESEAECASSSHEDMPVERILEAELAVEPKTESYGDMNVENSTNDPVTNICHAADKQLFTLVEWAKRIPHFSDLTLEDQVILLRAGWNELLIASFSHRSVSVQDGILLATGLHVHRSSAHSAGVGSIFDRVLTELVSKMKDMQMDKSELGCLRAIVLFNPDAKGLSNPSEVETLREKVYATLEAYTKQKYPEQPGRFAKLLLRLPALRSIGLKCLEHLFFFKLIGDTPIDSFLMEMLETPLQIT
Experimental: as §1, §2

SMILES | melting point | pKd (RXRα) | pKd (RXRβ) | pKd (RXRγ)
CCCc1cc2c(cc1C(=O)c1ccc(C(=O)O)cc1)C(C)(C)CCC2(C)C [Compound 101, 4-[(3-n-propyl-5,6,7,8-tetrahydro-5,5,8,8-tetramethyl-2-naphthyl)carbonyl]benzoic acid] | 252 to 254 °C | – | – | –
Cc1cc2c(cc1C(=O)c1ccc(C(=O)NOCc3ccccc3)cc1)C(C)(C)CCC2(C)C [Compound 105, 4-[(3,5,5,8,8-pentamethyl-5,6,7,8-tetrahydro-2-naphthyl)carbonyl]benzoic acid O-benzyloxime] | 169 to 172 °C | – | – | –
CCCCCCONC(=O)c1ccc(C(=O)c2cc3c(cc2C)C(C)(C)CCC3(C)C)cc1 [Compound 106, 4-[(3,5,5,8,8-pentamethyl-5,6,7,8-tetrahydro-2-naphthyl)carbonyl]benzoic acid O-hexyloxime] | 91 to 95 °C | – | – | –
CCOc1cc2c(cc1C=Cc1ccc(C(=O)O)cc1)C(C)(C)CCC2(C)C [Compound 107, 4-[(3-ethoxy-5,6,7,8-tetrahydro-5,5,8,8-tetramethyl-2-naphthyl)ethenyl]benzoic acid] | 195 to 200 °C (dec.) | – | – | –
CCCCOc1cc2c(cc1C(=O)c1ccc(C(=O)O)cc1)C(C)(C)CCC2(C)C [Compound 111, 4-[(3-butyloxy-5,6,7,8-tetrahydro-5,5,8,8-tetramethyl-2-naphthyl)carbonyl]benzoic acid] | 207 to 210 °C | – | – | –
CCCCOc1cc2c(cc1C=Cc1ccc(C(=O)O)cc1)C(C)(C)CCC2(C)C [Compound 112, 4-[(3-butyloxy-5,6,7,8-tetrahydro-5,5,8,8-tetramethyl-2-naphthyl)ethenyl]benzoic acid] | 194 to 196 °C | – | – | –
CCCCCCCOc1cc2c(cc1C(=O)c1ccc(C(=O)NO)cc1)C(C)(C)CCC2(C)C [Compound 115, 4-[(3-heptyloxy-5,6,7,8-tetrahydro-5,5,8,8-tetramethyl-2-naphthyl)carbonyl]benzoic acid oxime] | 200 to 205 °C | – | – | –
CCCCCCCOc1cc2c(cc1C=Cc1ccc(C(=O)O)cc1)C(C)(C)CCC2(C)C [Compound 116, 4-[(3-heptyloxy-5,6,7,8-tetrahydro-5,5,8,8-tetramethyl-2-naphthyl)ethenyl]benzoic acid] | 153 to 155 °C | – | – | –
CCCCCCOc1cc2c(cc1/C(C)=C/C=C/C(C)=C/C(=O)O)C(C)(C)CCC2(C)C [Compound 125, (2E, 4E, 6E)-7-[3-hexyloxy-5,6,7,8-tetrahydro-5,5,8,8-tetramethyl-2-naphthalen-2-yl]-3-methylocta-2,4,6-trienoic acid] | – | 7.25 | 6.84 | 6.73
COC(C)(c1ccc(C(=O)O)cc1)c1cccc2cc3c(cc12)C(C)(C)CCC3(C)C (stereo not shown) [Compound 141, 4-[1-methoxy-1-(5,6,7,8-tetrahydro-5,5,8,8-tetramethyl-anthracen-1-yl)ethyl)benzoic acid] | – | 7.31 | 7.89 | 7.15

The remaining lines, values ahead:

melting point | pKd (RXRα) | pKd (RXRβ) | pKd (RXRγ) | SMILES
– | 7.57 | 7.05 | 7.30 | C=C(c1ccc(C(=O)O)cc1)c1cccc2cc3c(cc12)C(C)(C)CCC3(C)C [Compound 142, 4-[1-(5,6,7,8-tetrahydro-5,5,8,8-tetramethyl-anthracen-1-yl)vinyl)benzoic acid]
– | 7.34 | 7.00 | 6.94 | CCCCCCCOc1c(/C(C)=C/C=C/C(C)=C/C(=O)O)cc(C(C)C)cc1C(C)C [Compound 146, (2E, 4E, 6E)-7-(3,5-diisopropyl-2-n-heptyloxyphenyl)-3-methylocta-2,4,6-trienoic acid]
– | 7.28 | 7.06 | 7.08 | CCCCCCCOc1c(C(C)C)cc(C(C)C)cc1C(C)C/C=C/C(C)=C/C(=O)O (stereo not shown) [Compound 148, (2E, 4E)-7-(3,5-diisopropyl-2-n-heptyloxyphenyl)-3-methylocta-2,4-dienoic acid]
– | 7.80 | 7.43 | 7.38 | CCCCCCCOc1c(C(C)C)cc(C(C)C)cc1C(C)C/C=C/C(C)=C\C(=O)O (stereo not shown) [Compound 149, (2Z, 4E)-7-(3,5-diisopropyl-2-n-heptyloxyphenyl)-3-methylocta-2,4-dienoic acid]
– | 7.68 | 7.28 | 6.97 | CCCOc1cc2c(cc1C1=C(/C=C/C(C)=C/C(=O)O)CCC1)C(C)(C)CCC2(C)C [Compound 158, (2E, 4E)-5-[2-(5,5,8,8-tetramethyl-3-propyloxy-5,6,7,8-tetrahydronaphthalen-2yl)cyclopent-1-en-1-yl]-3-methyl pentadienoic cid]
221 to 223.5 °C | – | – | – | CC1(C)CCC(C)(C)c2cc(C(=O)c3ccc(C(=O)NO)cc3)c(OCc3ccc(Br)cc3)cc21 [Compound 161, 4-[(3-(4-bromobenzyloxy)-5,6,7,8-tetrahydro-5,5,8,8-tetramethyl-2-naphthyl)carbonyl]benzoic acid oxime]
– | 8.70 | 8.22 | 8.22 | CON=C(c1ccc(C(=O)O)cc1)c1cc2c(cc1OCc1ccccc1)C(C)(C)CCC2(C)C [Compound 163, trans-4-[(3-benzyloxy-5,6,7,8-tetrahydro-5,5,8,8-tetramethyl-2-naphthyl)carbonyl]benzoic acid O-methyloxime]
222 to 228 °C (dec.) | – | – | – | CC1(C)CCC(C)(C)c2cc(C3(c4ccc(C(=O)O)cc4)OCCO3)c(OCc3ccccc3)cc21 [Compound 164, 4-[2-(3-benzyloxy-5,6,7,8-tetrahydro-5,5,8,8-tetramethyl-2-naphthyl)-[1,3]dioxolan-2-yl]benzoic acid]
– | 8.30 | 7.85 | 7.51 | CC(C=CC=C(C)c1cc2c(cc1OCC(C)C)C(C)(C)CCC2(C)C)=CC(=O)O [Compound 169, (2E, 4E, 6Z)-7-[3-isobutyloxy-5,6,7,8-tetrahydro-5,5,8,8-tetramethyl-2-naphthalen-2-yl]-3-methyl-octa-2,4,6-trienoic acid]
– | 7.96 | 7.39 | 7.11 | CCCCCOc1cc2c(cc1/C(C)=C/C=C/C(C)=C/C(=O)O)C(C)(C)CCC2(C)C [Compound 170, (2E, 4E, 6E)-7-[3-pentyloxy-5,6,7,8-tetrahydro-5,5,8,8-tetramethyl-2-naphthalen-2-yl]-3-methyl-octa-2,4,6-trienoic acid]
– | 8.40 | 7.92 | 7.68 | CCCCCCCOc1cc2c(cc1\C(C)=C/C=C/C(C)=C/C(=O)O)C(C)(C)CCC2(C)C [Compound 173, (2E, 4E, 6Z)-7-[3-heptyloxy-5,6,7,8-tetrahydro-5,5,8,8-tetramethyl-2-naphthalen-2-yl]-3-methyl-octa-2,4,6-trienoic acid]
– | 8.30 | 7.37 | 7.34 | COc1ccc(COc2cc3c(cc2/C(C)=C/C=C/C(C)=C/C(=O)O)C(C)(C)CCC3(C)C)cc1 [Compound 174, (2E, 4E, 6E)-7-[3-(4-methoybenzyloxy)-5,6,7,8-tetrahydro-5,5,8,8-tetramethyl-2-naphthalen-2-yl]-3-methyl-octa-2,4,6-trienoic acid]
– | 7.96 | 7.68 | 7.51 | CCCOc1cc2c(cc1C(C)C/C=C/C(C)=C/C(=O)O)C(C)(C)CCC2(C)C (stereo not shown) [Compound 175, (2E, 4E)-7-[3-propoxy-5,6,7,8-tetrahydro-5,5,8,8-tetramethyl-2-naphthalen-2-yl]-3-methyl-octa-2,4-dienoic acid]
